# Reference: patent US20210198277A1, “AMINE-SUBSTITUTED ARYL OR HETEROARYL COMPOUNDS” (Epizyme, Inc., priority 2016, published 2021)
# Target: T1, human EHMT2 913-1193 (Homo sapiens, UniProt Q96KQ7)
# T1 construct: recombinant purified human EHMT2 913-1193, Viva; purchased Viva
# T1 sequence (Q96KQ7 913-1193): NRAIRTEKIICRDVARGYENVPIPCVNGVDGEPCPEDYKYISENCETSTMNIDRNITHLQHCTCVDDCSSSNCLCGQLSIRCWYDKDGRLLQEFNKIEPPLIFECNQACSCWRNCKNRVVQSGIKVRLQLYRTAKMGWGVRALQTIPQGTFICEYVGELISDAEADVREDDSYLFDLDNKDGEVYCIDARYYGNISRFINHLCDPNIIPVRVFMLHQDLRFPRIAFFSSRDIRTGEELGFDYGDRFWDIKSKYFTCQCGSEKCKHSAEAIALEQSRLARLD
# Test: EHMT2 enzyme assay on histone peptide substrate (EHMT2 PEP)
# Assay type: biochemical
# Conditions: Table II; read-out: EHMT2 PEP (IC50 μM)
# Outline: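 Radiometric methyltransferase read-out: ^3H-methyl transfer from ^3H-SAM onto biotinylated histone peptide, captured on streptavidin Flashplates after 60 min reaction at room temperature. Enzyme 0.031 nM, preincubated 30 min with inhibitor; buffer 20 mM Bicine pH 7.5 with 1 mM TCEP; top compound concentration 50 μM final, 2% DMSO.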
row,IC50,Compound
1,0.1 to 1 µM,COc1ccc(Nc2nccc(NCc3ccc(=O)[nH]c3)n2)cc1OCCCN1CCCC1 [Compound 165]
2,> 10 µM,COc1ccc(Nc2nccc(NCC3CCN(C(C)=O)CC3)n2)cc1OCCC(=O)N1CCCC1 [Compound 166]
3,0.1 to 1 µM,COc1ccc(Nc2nccc(NCCc3ccccn3)n2)cc1OCCCN1CCCC1 [Compound 167]
4,> 10 µM,COc1ccc(Nc2nccc(N3CCN(c4ccccn4)CC3)n2)cc1OCCCN1CCCC1 [Compound 168]
5,> 10 µM,COc1ccc(Nc2nccc(N3CCS(=O)(=O)CC3)n2)cc1OCCCN1CCCC1 [Compound 169]
6,> 10 µM,COc1ccc(Nc2nccc(N3CC(C(=O)N(C)C)C3)n2)cc1OCCCN1CCCC1 [Compound 170]
7,1 to 10 µM,COc1ccc(Nc2nccc(N(C)C)n2)cc1OCCCN1CCCC1 [Compound 171]
8,1 to 10 µM,COc1ccc(Nc2nccc(N(C)CC3CCN(C(C)=O)CC3)n2)cc1OCCCN1CCCC1 [Compound 172]
9,1 to 10 µM,COc1ccc(Nc2cc(OCC3CCN(C(C)=O)CC3)ccn2)cc1OCCCN1CCCC1 [Compound 173]
10,> 10 µM,COc1ccc(Nc2nccc(C)n2)cc1OCCCN1CCCC1 [Compound 174]
11,> 10 µM,COc1ccc(Nc2nc(C)cc(C)n2)cc1OCCCN1CCCC1 [Compound 175]
12,> 10 µM,CNc1cccc(Nc2ccc(OC)c(OCCCN3CCCC3)c2)n1 [Compound 176]
13,1 to 10 µM,COCCN(C)c1ccnc(Nc2ccc(OC)c(OCCCN3CCCC3)c2)n1 [Compound 177]
14,0.1 to 1 µM,COc1ccc(Nc2nccc(NCCC3CCOCC3)n2)cc1OCCCN1CCCC1 [Compound 178]
15,> 10 µM,COc1ccc(Nc2nccc(N3CC(C(N)=O)C3)n2)cc1OCCCN1CCCC1 [Compound 179]
16,> 10 µM,COc1ccc(Nc2nccc(-n3cc(C)cn3)n2)cc1OCCCN1CCCC1 [Compound 180]

row,IC50,Compound
1,> 10 µM,COc1ccc(Nc2ncc(CO)cn2)cc1OCCCN1CCCC1 [Compound 181]
2,0.1 to 1 µM,COc1cnc(Nc2cc(NCC3CCN(C(C)=O)CC3)ccn2)cc1OCCCN1CCCC1 [Compound 182]
3,1 to 10 µM,COc1ccc(Nc2nccc(NCC3CCN(C(C)=O)CC3)n2)cc1OCC(C)CN1CCCC1 (stereo not shown) [Compound 183]
4,> 10 µM,COc1ccc(Nc2cncc(NCC3CCN(C(C)=O)CC3)c2)cc1OCCCN1CCCC1 [Compound 184]
5,1 to 10 µM,COc1ccc(Nc2cc(NCC3CCN(C(C)=O)CC3)cnn2)cc1OCCCN1CCCC1 [Compound 185]
6,0.1 to 1 µM,CNc1cc(C)nc(Nc2ccc(OC)c(OCCCN3CC[C@@H](F)C3)c2)n1 [Compound 186]
7,1 to 10 µM,CNc1nc(Nc2ccc(OC)c(OCCCN3CCCC3)c2)ncc1F [Compound 187]
8,0.1 to 1 µM,CNc1cc(Nc2ccc(OC)c(OCCCN3CCCC3)c2)cnn1 [Compound 188]
9,< 0.1 µM,COc1ccc(Nc2nccc(NCc3ccc4nccn4c3)n2)cc1OCCCN1CCCC1 [Compound 191]
10,0.1 to 1 µM,COc1ccc(Nc2nccc(NC3CN(C(C)=O)C3)n2)cc1OCCCN1CCCC1 [Compound 192]
11,0.1 to 1 µM,COc1ccc(Nc2nccc(NCCn3cccn3)n2)cc1OCCCN1CCCC1 [Compound 193]
12,1 to 10 µM,COc1ccc(Nc2nccc(NCC3CCN(C(C)=O)CC3)n2)cc1OC(C)CCN1CCCC1 (stereo not shown) [Compound 195]
13,0.1 to 1 µM,COc1ccc(Nc2nccc(NCC3CCN(S(C)(=O)=O)CC3)n2)cc1OCCCN1CCCC1 [Compound 199]
14,0.1 to 1 µM,CCOC(=O)N1CCC(CNc2ccnc(Nc3ccc(OC)c(OCCCN4CCCC4)c3)n2)CC1 [Compound 203]
15,1 to 10 µM,COc1ccc(Nc2nccc(NCC3CCOCC3)n2)cc1OCCN1CCOCC1 [Compound 204]
